Reference: US9497970B2, “Pesticide compounds” (priority 2013, dated 2016)

What was measured:
Format in all cases: in vivo
[1] = test system: Tobacco Budworm (Heliothis virescens); test: B.7 Tobacco Budworm (Heliothis virescens) I, microtiter plate insect diet; details: 120 h, 800 ppm, sprayed onto insect diet, 5 days, in comparison with untreated controls, read-out: mortality (egg and larval)
Procedure: B.7 Tobacco Budworm (Heliothis virescens) I
For evaluating control of tobacco budworm (Heliothis virescens) the test unit consisted of 96-well-microtiter plates containing an insect diet and 15-25 H. virescens eggs. The compounds were formulated using a solution containing 75% v/v water and 25% v/v DMSO. Different concentrations of formulated compounds were sprayed onto the insect diet at 10 μl, using a custom built micro atomizer, at two replications.
(§1) After application, microtiter plates were incubated at about 28±1° C. and about 80±5% relative humidity for 5 days. Egg and larval mortality was then visually assessed.

[2] = test system: Mediterranean Fruitfly (Ceratitis capitata); test: B.6 Mediterranean Fruitfly (Ceratitis capitata), microtiter plate insect diet; details: 120 h, 800 ppm, sprayed onto insect diet, 5 days, in comparison with untreated controls, read-out: mortality (egg and larval)
Procedure: B.6 Mediterranean Fruitfly (Ceratitis capitata)
For evaluating control of Mediterranean fruitfly (Ceratitis capitata) the test unit consisted of microtiter plates containing an insect diet and 50-80 C. capitata eggs.
(§2) The compounds were formulated using a solution containing 75% v/v water and 25% v/v DMSO. Different concentrations of formulated compounds were sprayed onto the insect diet at 5 μl, using a custom built micro atomizer, at two replications.
as §1

[3] = test system: Boll Weevil (Anthonomus grandis); test: B.3 Boll Weevil (Anthonomus grandis), microtiter plate insect diet; details: 120 h, 800 ppm, sprayed onto insect diet, 5 days, in comparison with untreated controls, read-out: mortality (egg and larval)
Procedure: B.3 Boll Weevil (Anthonomus grandis)
For evaluating control of boll weevil (Anthonomus grandis) the test unit consisted of 96-well-microtiter plates containing an insect diet and 5-10 A. grandis eggs.
as §2
After application, microtiter plates were incubated at about 25±1° C. and about 75±5% relative humidity for 5 days. Egg and larval mortality was then visually assessed.

[4] = test system: Diamond Back Moth (Plutella xylostella); test: B.1 Diamond Back Moth (Plutella xylostella), cabbage leaf dip; details: foliar, 500 ppm, 3rd instar larvae on dipped cabbage leaves, 72 hours after treatment, in comparison with untreated controls, read-out: mortality
Procedure: B.1 Diamond Back Moth (Plutella xylostella)
The active compound was dissolved at the desired concentration in a mixture of 1:1 (vol:vol) distilled water:aceteone. Surfactant (Kinetic HV) was added at a rate of 0.01% (vol/vol). The test solution was prepared at the day of use.
Leaves of cabbage were dipped in test solution and air-dried. Treated leaves were placed in petri dishes lined with moist filter paper and inoculated with ten 3rd instar larvae. Mortality was recorded 72 hours after treatment. Feeding damages were also recorded using a scale of 0-100%.

[5] = test system: Orchid thrips (dichromothrips corbetti); test: B.12 Orchid thrips (dichromothrips corbetti), floral-immersion technique; details: adult thrips on dipped orchid petals, 72 hours after treatment, in comparison with untreated controls
Procedure: B.12 Orchid thrips (dichromothrips corbetti)
Dichromothrips corbetti adults used for bioassay were obtained from a colony maintained continuously under laboratory conditions. For testing purposes, the test compound is diluted in a 1:1 mixture of acetone:water (vol:vol), plus Kinetic HV at a rate of 0.01% v/v.
Thrips potency of each compound was evaluated by using a floral-immersion technique. All petals of individual, intact orchid flowers were dipped into treatment solution and allowed to dry in Petri dishes. Treated petals were placed into individual resealable plastic along with about 20 adult thrips. All test arenas were held under continuous light and a temperature of about 28° C. for duration of the assay. After 3 days, the numbers of live thrips were counted on each petal. The percent mortality was recorded 72 hours after treatment.

[6] = test system: Yellow Fever Mosquito (Aedes aegypti); test: whole plant or invertebrate; details: 48 h, freshly hatched larvae in tap water, 2 days, in comparison with untreated controls, read-out: mortality (larval)
Procedure: B.11 Yellow Fever Mosquito (Aedes aegypti)
For evaluating control of yellow fever mosquito (Aedes aegypti) the test unit consisted of 96-well-microtiter plates containing 200 μl of tap water per well and 5-15 freshly hatched A. aegypti larvae.
The active compounds were formulated using a solution containing 75% (v/v) water and 25% (v/v) DMSO. Different concentrations of formulated compounds or mixtures were sprayed onto the insect diet at 2.5 μl, using a custom built micro atomizer, at two replications.

Cc1ccc(Cl)cc1NC(=S)N/N=C/c1ccc2c(ccc3c2ncn3-c2ccc(OC(F)(F)F)cc2)c1 [C-21, 1-(5-chloro-2-methyl-phenyl)-3-[(E)-[3-[4-(trifluoromethoxy)phenyl]benzo[e]benzimidazol-7-yl]methyleneamino] thiourea]
≥ 75%: mortality at 800 ppm [1] | mortality at 800 ppm [2] | mortality at 800 ppm [3] | mortality at 500 ppm [4] | mortality at 500 ppm [5]

FC(F)(F)Oc1ccc(-n2cnc3c4ccc(/C=N/NC(=S)Nc5c(Cl)cccc5Cl)cc4ccc32)cc1 [C-37, 1-(2,6-dichlorophenyl)-3-[(E)-[3-[4-(trifluoromethoxy)phenyl]benzo[e]benzimidazol-7-yl]methyleneamino] thiourea]
≥ 75%: mortality at 800 ppm [1] | mortality at 800 ppm [2] | mortality at 800 ppm [3] | mortality at 500 ppm [4] | mortality at 500 ppm [5] | mortality at 800 ppm [6]

Cc1cc(Cl)ccc1NC(=S)N/N=C/c1ccc2c(ccc3c2ncn3-c2ccc(OC(F)(F)F)cc2)c1 [C-38, 1-(4-chloro-2-methyl-phenyl)-3-[(E)-[3-[4-(trifluoromethoxy)phenyl]benzo[e]benzimidazol-7-yl]methyleneamino] thiourea]
≥ 75%: mortality at 800 ppm [1] | mortality at 800 ppm [2] | mortality at 800 ppm [3] | mortality at 500 ppm [4] | mortality at 500 ppm [5]

Cc1ccc(C)c(NC(=S)N/N=C/c2ccc3c(ccc4c3ncn4-c3ccc(OC(F)(F)F)cc3)c2)c1 [C-41, 1-(2,5-dimethylphenyl)-3-[(E)-[3-[4-(trifluoromethoxy)phenyl]benzo[e]benzimidazol-7-yl]methyleneamino] thiourea]
≥ 75%: mortality at 800 ppm [1] | mortality at 800 ppm [2] | mortality at 800 ppm [3] | mortality at 500 ppm [4] | mortality at 500 ppm [5] | mortality at 800 ppm [6]

CC(C)c1ccccc1NC(=S)N/N=C/c1ccc2c(ccc3c2ncn3-c2ccc(OC(F)(F)F)cc2)c1 [C-45, 1-(2-isopropylphenyl)-3-[[3-[4-(trifluoromethoxy)phenyl]-3aH-benzo[e]benzimidazol-7-ylidene]methylimino] thiourea]
≥ 75%: mortality at 800 ppm [1] | mortality at 800 ppm [2] | mortality at 800 ppm [3] | mortality at 500 ppm [4] | mortality at 500 ppm [5]

Cc1cccc(C)c1NC(=S)N/N=C/c1ccc2c(c1)sc1c2ncn1-c1ccc(OC(F)(F)F)cc1 [C-47, 1-(2,6-dimethylphenyl)-3-[(E)-[3-[4-(trifluoromethoxy)phenyl]benzothiopheno[2,3-d]imidazol-6-yl]methyleneamino]thiourea]
≥ 75%: mortality at 800 ppm [1] | mortality at 800 ppm [2] | mortality at 800 ppm [3] | mortality at 500 ppm [4] | mortality at 800 ppm [6]

COc1cccc(C)c1NC(=S)N/N=C/c1ccc2c(ccc3c2ncn3-c2ccc(OC(F)(F)F)cc2)c1 [C-65, 1-(2-methoxy-6-methyl-phenyl)-3-[(E)-[3-[4-(trifluoromethoxy)phenyl]benzo[e]benzimidazol-7-yl]methyleneamino] thiourea]
≥ 75%: mortality at 800 ppm [1] | mortality at 800 ppm [2] | mortality at 800 ppm [3] | mortality at 500 ppm [4] | mortality at 500 ppm [5] | mortality at 800 ppm [6]

FC(F)(F)Oc1ccc(-n2cnc3c4ccc(/C=N/NC(=S)Nc5c(Br)cccc5Br)cc4ccc32)cc1 [C-66, 1-(2,6-dibromophenyl)-3-[(E)-[3-[4-(trifluoromethoxy)phenyl]benzo[e]benzimidazol-7-yl]methyleneamino] thiourea]
≥ 75%: mortality at 800 ppm [1] | mortality at 800 ppm [2] | mortality at 800 ppm [3] | mortality at 500 ppm [4] | mortality at 500 ppm [5]

CCc1cccc(C)c1NC(=S)N/N=C(\C)c1ccc2c(ccc3c2ncn3-c2ccc(OC(F)(F)F)cc2)c1 [C-82, 1-(2-ethyl-6-methyl-phenyl)-3-[(E)-1-[3-[4-(trifluoromethoxy)phenyl]benzo[e]benzimidazol-7-yl]ethylideneamino]thiourea]
≥ 75%: mortality at 500 ppm [4] | mortality at 500 ppm [5]

Cc1cccc(C)c1NC(=S)N/N=C/c1ccc2c(ccc3c(-c4ccc(OC(F)(F)F)cc4)snc32)c1 [C-88, 1-(2,6-dimethylphenyl)-3-[(E)-[3-[4-(trifluoromethoxy)phenyl]benzo[g][2,1]benzothiazol-7-yl]methyleneamino] thiourea]
≥ 75%: mortality at 800 ppm [1] | mortality at 800 ppm [6]

CCc1cccc(CC)c1NC(=S)N/N=C/c1ccc2c(ccc3c(-c4ccc(OC(F)(F)F)cc4)n(C)nc32)c1 [C-93, 1-(2,6-diethylphenyl)-3-[(E)-[2-methyl-3-[4-(trifluoromethoxy)phenyl]benzo [g]indazol-7-yl]methyleneamino] thiourea]
≥ 75%: mortality at 800 ppm [1] | mortality at 800 ppm [3] | mortality at 500 ppm [4] | mortality at 500 ppm [5] | mortality at 800 ppm [6]

Cc1cccc(C)c1NC(=S)N/N=C/c1ccc2c(c1)CCC1C2=NN(C)C1c1ccc(OC(F)(F)F)cc1 (stereo not shown) [C-94, 1-(2,6-dimethylphenyl)-3-[(E)-[2-methyl-3-[4-(trifluoromethoxy)phenyl]-3,3a,4,5-tetrahydrobenzo[g]indazol-7-yl]methyleneamino]thiourea]
≥ 75%: mortality at 800 ppm [1] | mortality at 800 ppm [3] | mortality at 500 ppm [4] | mortality at 500 ppm [5] | mortality at 800 ppm [6]

COc1cccc(C)c1NC(=S)N/N=C/c1ccc2c(ccc3c(-c4ccc(OC(F)(F)F)cc4)n(C)nc32)c1 [C-97, 1-(2-methoxy-6-methyl-phenyl)-3-[(E)-[2-methyl-3-[4-(trifluoromethoxy)phenyl]benzo[g]indazol-7-yl]methyleneamino]thiourea]
≥ 75%: mortality at 800 ppm [1] | mortality at 800 ppm [2] | mortality at 800 ppm [3] | mortality at 500 ppm [4] | mortality at 800 ppm [6]

Cc1cccnc1NC(=S)N/N=C/c1ccc2c(ccc3c(-c4ccc(OC(F)(F)F)cc4)n(C)nc32)c1 [C-101, 1-(3-methyl-2-pyridyl)-3-[(E)-[2-methyl-3-[4-(trifluoromethoxy)phenyl]benzo[g]indazol-7-yl]methyleneamino]thiourea]
≥ 75%: mortality at 800 ppm [1] | mortality at 800 ppm [2] | mortality at 800 ppm [3] | mortality at 500 ppm [4] | mortality at 500 ppm [5]

Cc1cccc(C)c1NC(=S)N/N=C/c1ccc2c(ccc3c2ncn3-c2ncc(C(F)(F)F)cc2Cl)c1 [C-112, 1-[[3-[3-chloro-5-(trifluoromethyl)-2-pyridyl]-3aH-benzo[e]benzimidazol-7-ylidene]methylimino]-3-(2,6-dimethylphenyl)thiourea]
≥ 75%: mortality at 800 ppm [1] | mortality at 800 ppm [2] | mortality at 800 ppm [3] | mortality at 800 ppm [6]

CC(C)c1ccccc1N1C(=O)CS/C1=N\C(=O)Nc1ccc2c(ccc3c2ncn3-c2ccc(OC(F)(F)F)cc2)c1 [C-115, (1Z)-1-[3-(2-isopropylphenyl)-4-oxo-thiazolidin-2-ylidene]-3-[3-[4(trifluoromethoxy)phenyl]benzo[e]benzimidazol-7-yl]urea]
≥ 75%: mortality at 800 ppm [1] | mortality at 800 ppm [2] | mortality at 800 ppm [3] | mortality at 800 ppm [6]

CC(C)c1ccccc1N/C(S)=N/C(=O)Nc1ccc2c(ccc3c2ncn3-c2ccc(OC(F)(F)F)cc2)c1 [C-117, (1Z)-1-[(2-isopropylanilino)-sulfanyl-methylene]-3-[3-[4-(trifluoromethoxy)phenyl]benzo[e]benzimidazol-7-yl]urea]
≥ 75%: mortality at 800 ppm [1] | mortality at 800 ppm [2] | mortality at 800 ppm [3] | mortality at 800 ppm [6]
